Test: mn = molality of the nth substance listed, in mol/kg
Conditions: 100 kPa, Liquid; for viscosity: Capillary tube (Ostwald / Ubbelohde) method; for speed of sound: Frequency=2 MHz, Linear variable-path acoustic interferometer; for mass density: Vibrating tube method

CCCC[P+](CCCC)(CCCC)CCCC.[Cl-] [tetrabutylphosphonium chloride] + O
Conditions | mass density [kg/m3] | speed of sound [m/s] | viscosity [mPa·s]
298.15 K, m1 = 0.0249 | 996.83 | 1506.4 | 0.9234
298.15 K, m1 = 0.0773 | 996.44 | 1520 | 0.9925
298.15 K, m1 = 0.1592 | 995.93 | 1541.6 | 1.101
298.15 K, m1 = 0.2659 | 995.41 | 1567.7 | 1.241
298.15 K, m1 = 0.3842 | 994.99 | 1593.7 | 1.397
298.15 K, m1 = 0.4509 | 994.8 | 1607.4 | 1.486
298.15 K, m1 = 0.504 | 994.67 | 1617.5 | 1.556
298.15 K, m1 = 0.5771 | 994.5 | 1630.3 | 1.652
303.15 K, m1 = 0.0249 | 995.41 | 1518.2 | 0.8256
303.15 K, m1 = 0.0773 | 994.97 | 1532.4 | 0.8843
303.15 K, m1 = 0.1592 | 994.37 | 1551.9 | 0.9761
303.15 K, m1 = 0.2659 | 993.73 | 1575.2 | 1.095
303.15 K, m1 = 0.3842 | 993.17 | 1598.2 | 1.228
303.15 K, m1 = 0.4509 | 992.9 | 1610.1 | 1.302
303.15 K, m1 = 0.504 | 992.7 | 1619.5 | 1.362
303.15 K, m1 = 0.5771 | 992.42 | 1633.2 | 1.444
308.15 K, m1 = 0.0295 | 993.74 | 1529.8 | 0.7476
308.15 K, m1 = 0.0842 | 993.23 | 1541.2 | 0.7998
308.15 K, m1 = 0.1722 | 992.52 | 1559.9 | 0.8836
308.15 K, m1 = 0.2979 | 991.68 | 1585.8 | 1.004
308.15 K, m1 = 0.3554 | 991.35 | 1595.6 | 1.058
308.15 K, m1 = 0.4266 | 990.98 | 1607.8 | 1.126
308.15 K, m1 = 0.4508 | 990.86 | 1611.9 | 1.149
308.15 K, m1 = 0.5619 | 990.34 | 1628.9 | 1.255
313.15 K, m1 = 0.0295 | 991.9 | 1537.3 | 0.6773
313.15 K, m1 = 0.0842 | 991.36 | 1547.8 | 0.722
313.15 K, m1 = 0.1722 | 990.57 | 1566.5 | 0.7937
313.15 K, m1 = 0.2979 | 989.61 | 1588.4 | 0.8964
313.15 K, m1 = 0.3554 | 989.21 | 1597.3 | 0.9432
313.15 K, m1 = 0.4266 | 988.76 | 1607.8 | 1.001
313.15 K, m1 = 0.4508 | 988.61 | 1611.4 | 1.021
313.15 K, m1 = 0.5619 | 987.95 | 1627.3 | 1.112

CCCC[P+](C)(CCCC)CCCC.COS(=O)(=O)[O-] [tributylmethylphosphonium methyl sulfate] + O
Conditions | mass density [kg/m3] | speed of sound [m/s] | viscosity [mPa·s]
298.15 K, m1 = 0.0282 | 997.65 | 1504.7 | 0.9199
298.15 K, m1 = 0.0438 | 997.98 | 1507.9 | 0.9362
298.15 K, m1 = 0.0564 | 998.25 | 1510.3 | 0.9494
298.15 K, m1 = 0.0658 | 998.45 | 1512.1 | 0.9592
298.15 K, m1 = 0.0847 | 998.86 | 1515.5 | 0.9789
298.15 K, m1 = 0.113 | 999.46 | 1520.9 | 1.009
298.15 K, m1 = 0.174 | 1000.77 | 1533.3 | 1.073
298.15 K, m1 = 0.2336 | 1002.05 | 1545.1 | 1.135
298.15 K, m1 = 0.2813 | 1003.07 | 1554.3 | 1.185
303.15 K, m1 = 0.0282 | 996.22 | 1517.7 | 0.8225
303.15 K, m1 = 0.0438 | 996.54 | 1521.6 | 0.8362
303.15 K, m1 = 0.0564 | 996.8 | 1524.6 | 0.8473
303.15 K, m1 = 0.0658 | 996.99 | 1526.7 | 0.8555
303.15 K, m1 = 0.0847 | 997.38 | 1530.7 | 0.8722
303.15 K, m1 = 0.113 | 997.96 | 1536.2 | 0.8971
303.15 K, m1 = 0.174 | 999.21 | 1547.8 | 0.951
303.15 K, m1 = 0.2336 | 1000.44 | 1558.6 | 1.004
303.15 K, m1 = 0.2813 | 1001.42 | 1566.7 | 1.046
308.15 K, m1 = 0.0282 | 994.58 | 1527.2 | 0.7395
308.15 K, m1 = 0.0438 | 994.89 | 1530.9 | 0.7505
308.15 K, m1 = 0.0564 | 995.14 | 1533.7 | 0.7595
308.15 K, m1 = 0.0658 | 995.32 | 1535.9 | 0.7662
308.15 K, m1 = 0.0847 | 995.7 | 1539.9 | 0.7796
308.15 K, m1 = 0.113 | 996.25 | 1545.9 | 0.7997
308.15 K, m1 = 0.174 | 997.45 | 1557.5 | 0.8432
308.15 K, m1 = 0.2336 | 998.62 | 1568.4 | 0.8857
308.15 K, m1 = 0.2813 | 999.56 | 1576.3 | 0.9199
313.15 K, m1 = 0.0282 | 992.74 | 1536.3 | 0.6725
313.15 K, m1 = 0.0438 | 993.04 | 1540 | 0.6832
313.15 K, m1 = 0.0564 | 993.27 | 1542.7 | 0.6919
313.15 K, m1 = 0.0658 | 993.45 | 1544.8 | 0.6983
313.15 K, m1 = 0.0847 | 993.81 | 1548.8 | 0.7113
313.15 K, m1 = 0.113 | 994.34 | 1554.2 | 0.7308
313.15 K, m1 = 0.174 | 995.49 | 1564.7 | 0.7728
313.15 K, m1 = 0.2336 | 996.62 | 1572 | 0.814
313.15 K, m1 = 0.2813 | 997.52 | 1578 | 0.847
